Measurements as given in patent US12427134B2, “Methods of reducing the risk of cardiovascular events in a subject with atrial fibrillation and/or atrial flutter” (priority 2019, dated 2025).

Tested on: hypertriglyceridemic patients with cardiovascular disease or at high risk for cardiovascular disease
Assay: REDUCE-IT: electrocardiograms, vital signs (blood pressure, pulse), weight and waist circumference
Assay type: in vivo, human
Conditions: Safety population
Protocol: Blood pressure was measured using a standardized process: • Patient sat for ≥5 minutes with feet flat on the floor and measurement arm supported so that the midpoint of the manometer cuff was at heart level; and • Used a mercury sphygmomanometer or automatic blood pressure device with an appropriately sized cuff with the bladder centered over the brachial artery.
Blood pressure was recorded to the nearest 2 mmHg mark on the manometer or to the nearest whole number on an automatic device. A blood pressure reading was repeated 1 to 2 minutes later, and the second reading recorded to the nearest 2 mmHg mark.
Height, Weight and Body Mass Index: Height and weight were measured. Measurement of weight was performed with the patient dressed in indoor clothing, with shoes removed, and bladder empty.
Waist Circumference: Waist circumference was measured with a tape measure, as follows: Start at the top of the hip bone then bring the tape measure all the way around—level with the navel. Make sure the tape measure is snug, but without compressing the skin, and that it is parallel with the floor. Patients should not have held their breath while measuring waist circumference.
12-Lead Electrocardiogram (ECG): ECGs (standard 12-lead) were obtained annually. Site personnel made every attempt to perform a patient's ECG using the same equipment at each visit. ECGs were reviewed by the site for the detection of silent MI. Silent MIs were sent for event adjudication. All post-randomization ECGs (protocol-specified and other) were sent to the CEC for evaluation of silent MI. The 12-lead ECG parameters included Heart Rate (bpm), PR Interval (msec), QRS Interval (msec), QT Interval (msec), and QTc Interval (msec) were measured, and Overall Interpretation and Silent MI (Yes/No) were summarized for all patients at Screening (Visit 1), Randomization visit (Visit 2; Day 0) and all other follow-up visits including the last visit of the study.
A treatment-emergent PCS high value at any time was defined as a change from a value less than or equal to the defined PCS value at baseline to a PCS high value at any post-baseline measurement. A treatment-emergent PCS low value at any time was defined as a change from a value greater than or equal to the lower PCS value at baseline to a PCS low value at any post-baseline measurement.
As an additional exploratory analysis, the relationship between post-baseline biomarker values and treatment effects with the primary and key secondary endpoints were assessed by adding biomarker values (for example, at 4 months, or at 1 year, etc.) as time-dependent covariates in the Cox proportional hazards model. Diagnostic plots for the proportional hazard's assumption was evaluated. Weight was measured at the screening visit and at all follow-up visits, including the last visit of the study. Waist circumference was measured at the randomization visit (Visit 2; Day 0), Visit 5 (Day 720) and the last visit of the study. Descriptive statistics were presented by visit and treatment group for baseline, post-treatment change from baseline, and the percent change from baseline. Analysis methods for repeated measurements were used to compare percent change from baseline between treatments.

Compound: CC/C=C\C/C=C\C/C=C\C/C=C\C/C=C\CCCC(=O)OCC [AMR101, eicosapentaenoic acid ethyl ester]
- Diastolic Blood Pressure, mean baseline value (Baseline (Visit 2)): 78.1 mmHg
- ECG Heart Rate, mean baseline value (Baseline (Visit 2)): 66.6 beats/minute
- Heart Rate (vital sign), mean baseline value (Baseline (Visit 2)): 68.1 beats/minute
- PR Interval, mean baseline value (Baseline (Visit 2)): 172.2 ms
- QTc Interval, mean baseline value (Baseline (Visit 2)): 422.4 ms
- Systolic Blood Pressure, mean baseline value (Baseline (Visit 2)): 132.6 mmHg
- Diastolic Blood Pressure, mean change from baseline (Last Visit): −0.7 mmHg
- ECG Heart Rate, mean change from baseline (Last Visit): 2.1 beats/minute
- Heart Rate (vital sign), mean change from baseline (Last Visit): 1.7 beats/minute
- PR Interval, mean change from baseline (Last Visit): 1.7 ms
- QTc Interval, mean change from baseline (Last Visit): 5.0 ms
- Systolic Blood Pressure, mean change from baseline (Last Visit): 0.9 mmHg
- ECG TEAE - ECG signs of myocardial ischemia, % patients (N = 4089): (0.0) %
- ECG TEAE - ECG signs of myocardial ischemia, n patients (N = 4089): 2
- ECG TEAE - Electrocardiogram PR prolongation, % patients (N = 4089): (0.0) %
- ECG TEAE - Electrocardiogram PR prolongation, n patients (N = 4089): 0
- ECG TEAE - Electrocardiogram Q wave abnormal, % patients (N = 4089): (0.0) %
- ECG TEAE - Electrocardiogram Q wave abnormal, n patients (N = 4089): 1
- ECG TEAE - Electrocardiogram QRS complex abnormal, % patients (N = 4089): (0.0) %
- ECG TEAE - Electrocardiogram QRS complex abnormal, n patients (N = 4089): 2
- ECG TEAE - Electrocardiogram QT prolonged, % patients (N = 4089): (0.2) %
- ECG TEAE - Electrocardiogram QT prolonged, n patients (N = 4089): 10
- ECG TEAE - Electrocardiogram ST segment abnormal, % patients (N = 4089): (0.1) %
- ECG TEAE - Electrocardiogram ST segment abnormal, n patients (N = 4089): 6
- ECG TEAE - Electrocardiogram ST segment depression, % patients (N = 4089): (0.1) %
- ECG TEAE - Electrocardiogram ST segment depression, n patients (N = 4089): 4
- ECG TEAE - Electrocardiogram ST-T change, % patients (N = 4089): (0.0) %
- ECG TEAE - Electrocardiogram ST-T change, n patients (N = 4089): 1
- ECG TEAE - Electrocardiogram ST-T segment abnormal, % patients (N = 4089): (0.0) %
- ECG TEAE - Electrocardiogram ST-T segment abnormal, n patients (N = 4089): 2
- ECG TEAE - Electrocardiogram T wave abnormal, % patients (N = 4089): (0.1) %
- ECG TEAE - Electrocardiogram T wave abnormal, n patients (N = 4089): 6
- ECG TEAE - Electrocardiogram T wave amplitude decreased, % patients (N = 4089): (0.0) %
- ECG TEAE - Electrocardiogram T wave amplitude decreased, n patients (N = 4089): 0
- ECG TEAE - Electrocardiogram T wave inversion, % patients (N = 4089): (0.2) %
- ECG TEAE - Electrocardiogram T wave inversion, n patients (N = 4089): 7
- ECG TEAE - Electrocardiogram T wave normal, % patients (N = 4089): (0.0) %
- ECG TEAE - Electrocardiogram T wave normal, n patients (N = 4089): 0
- ECG TEAE - Electrocardiogram abnormal, % patients (N = 4089): (0.2) %
- ECG TEAE - Electrocardiogram abnormal, n patients (N = 4089): 10
- ECG TEAE - Electrocardiogram change, % patients (N = 4089): (0.1) %
- ECG TEAE - Electrocardiogram change, n patients (N = 4089): 3
- ECG TEAE - Exercise electrocardiogram abnormal, % patients (N = 4089): (0.0) %
- ECG TEAE - Exercise electrocardiogram abnormal, n patients (N = 4089): 1
- Diastolic Blood Pressure, mean change from baseline (Visit 3): 0.1 mmHg
- Heart Rate (vital sign), mean change from baseline (Visit 3): 1.2 beats/minute
- Systolic Blood Pressure, mean change from baseline (Visit 3): −0.5 mmHg
- Diastolic Blood Pressure, mean change from baseline (Visit 4): −0.1 mmHg
- ECG Heart Rate, mean change from baseline (Visit 4): 1.2 beats/minute
- Heart Rate (vital sign), mean change from baseline (Visit 4): 0.9 beats/minute
- PR Interval, mean change from baseline (Visit 4): -0.3 ms
- QTc Interval, mean change from baseline (Visit 4): 1.8 ms
- Systolic Blood Pressure, mean change from baseline (Visit 4): −0.2 mmHg
- Diastolic Blood Pressure, mean change from baseline (Visit 5): −0.1 mmHg
- ECG Heart Rate, mean change from baseline (Visit 5): 1.7 beats/minute
- Heart Rate (vital sign), mean change from baseline (Visit 5): 1.3 beats/minute
- PR Interval, mean change from baseline (Visit 5): 0.4 ms
- QTc Interval, mean change from baseline (Visit 5): 2.8 ms
- Systolic Blood Pressure, mean change from baseline (Visit 5): 0.5 mmHg
- Diastolic Blood Pressure, mean change from baseline (Visit 6): −0.4 mmHg
- ECG Heart Rate, mean change from baseline (Visit 6): 1.6 beats/minute
- Heart Rate (vital sign), mean change from baseline (Visit 6): 1.4 beats/minute
- PR Interval, mean change from baseline (Visit 6): 0.8 ms
